B1: DSR2: synthetic double-stranded RNA, 119 mer, SEQ ID NO. 6, made by in vitro transcription and annealing (nucleic acid, listed as Tetragenococcus halophilus)
chain: AAAAAATTACCTTTTTCTATTCGTGAGAAAATTTCTCAAGCCGACAAGTATCATAAAAAATTTGCTTTTGAACACTTTTTGAAGGTGTTTCTCTATGGCATCGATCATGAGTGTGAAAG
modifications: RNA, all phosphodiester, T or U not given here; further chemistry not fully specified
notes: 6, made by in vitro transcription and annealing

Test system: bone marrow-derived dendritic cells
Test: Promotion of interferon β production from bone marrow-derived dendritic cells (PBL interferon β assay kit)
Format: cell-based, mouse
Method: In addition, measurement was also carried out on interferon β, which has been reported to be involved in the production of interleukin 12. Activity promoting production of interferon β from bone marrow-derived dendritic cells (after culturing for 6 hours using an interferon β assay kit (PBL)) was as shown in FIG. 8.
At this time, interferon […], which has been reported to be involved in interleukin 12 production, was also measured.
(§1) Bone marrow-derived dendritic cells were prepared in the same manner as Example 2. Synthetic RNA was added to the bone marrow-derived dendritic cells followed by co-culturing for 6 hours in a 5% CO2 incubator at 37° C. Interferon β production promoting activity was measured using an interferon β assay kit manufactured by PBL.
as §1, with “for 24” for “for 6”, “using the” for “using an”

Molecule	interferon β production promoting activity (culturing for 6 hours, concentration response)	interferon β production promoting activity (dendritic cells from TLR3-knockout mice vs wild type, 6 hours)	interferon β production from bone marrow-derived dendritic cells (co-culturing for 24 hours)
DSR1: synthetic double-stranded RNA, 46 mer, SEQ ID NO. 5, sequence cloned from Th221 double-stranded RNA fraction (AAATTTTCAAAAACCTGTTTTGCTTCTTCTAAAAATCCAATTGAAA; listed as DNA, chemistry not given here; listed as Tetragenococcus halophilus)	increased dependent on the concentration	decreased	–
B1	–	–	indicated to be produced

Reference: US8334371B2, “Lactic acid bacteria-derived double-stranded RNA” (Kikkoman Corporation, priority 2007, dated 2012)
